Each block holds one compound with its values, some of them ahead of it.
Legend:
[1] = test system: LPA1; details: read-out: EC50 at LPA1; cited from earlier work
[2] = test system: LPA2; details: read-out: EC50 at LPA2; cited from earlier work
[3] = biological target: LPA1 receptor (Homo sapiens, UniProt Q92633); assay: Ca2+ mobilization assay in LPA1 stably transfected RH7777 cells; assay type: cell-based; details: for LPA1 agonist activity (in words): highest concentration tested 10 μM
[4] = stability studies in PBS and cellular culture medium; assay type: physicochemical; details: up to 8 hours at 37 °C
[5] = test system: B103 neuroblastoma cells overexpressing EGFP-LPA1 receptor; assay: neurite retraction assay; assay type: cell-based; details: 15 minutes treatment
[6] = test system: B103 neuroblastoma cells overexpressing LPA1 receptor; assay: transwell migration assay; assay type: cell-based; details: 1 μM in lower chamber, 5 h
[7] = test system: dorsal root ganglia (DRG) neurons; assay: calcium microfluorography in primary DRG sensory neurons; assay type: cell-based, rat; details: two repetitive applications of 10 μM
[8] = test system: DRG neurons (nociceptors); assay: multielectrode array; assay type: cell-based, rat; details: 10 μM, two consecutive pulses
[9] = test system: mice; assay: acetic acid-induced writhing assay; assay type: in vivo, mouse
[10] = test system: mice with SNI; assay: spared nerve injury; assay type: in vivo, mouse; details: 10 mg/kg i.p. daily; 3, 10 and 21 days post-surgery, vs vehicle
[11] = test system: mice; assay: open field test, exploratory and locomotor activity; assay type: in vivo, mouse; details: at the selected dose (10 mg/kg i.p.)
[12] = test system: EGFP-LPA1 fusion receptor; assay: LPA1 receptor internalization assay; details: 1 μM

Sequence of LPA1 receptor (Q92633 whole entry): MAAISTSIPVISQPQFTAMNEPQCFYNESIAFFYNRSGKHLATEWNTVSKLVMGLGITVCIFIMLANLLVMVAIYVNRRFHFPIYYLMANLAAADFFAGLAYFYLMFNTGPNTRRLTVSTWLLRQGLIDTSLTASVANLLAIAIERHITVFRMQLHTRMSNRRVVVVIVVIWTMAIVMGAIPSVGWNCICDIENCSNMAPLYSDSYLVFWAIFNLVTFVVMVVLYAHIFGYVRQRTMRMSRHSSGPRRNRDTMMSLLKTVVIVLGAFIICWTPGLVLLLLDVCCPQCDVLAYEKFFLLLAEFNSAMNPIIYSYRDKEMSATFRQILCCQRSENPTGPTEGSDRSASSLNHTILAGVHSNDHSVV

SMILES: CCCCCCCC/C=C\CCCCCCCC(=O)NCCC(=O)P(=O)(O)O [Compound 2]
- EC50 [1]: 221 nM
- EC50 [2]: 1090 nM

- LPA1 agonist activity (in words) [3]: inactive
SMILES: CCCCCCCCCC/C=C\CCCCCCCC(=O)OC[C@@H](O)COP(=O)(O)O [Compound 16, (2R)-2-Hydroxy-3-(phosphonooxy)propyl (9Z)-icos-9-enoate]

- LPA1 agonist activity (in words) [3]: inactive
SMILES: O=C(CCCCCCCc1ccccc1)OC[C@@H](O)COP(=O)(O)O [Compound 19, (2R)-2-Hydroxy-3-(phosphonooxy)propyl 8-phenyloctanoate]

- compound remaining (stability) ([4]; PBS): > 85%
- compound remaining (stability) ([4]; culture media): > 85%
SMILES: O=C(CCCCCCCCCc1ccccc1)O[C@H](CBr)COP(=O)(O)O [Compound (S)-17, (2S)-1-Bromo-3-(phosphonooxy)propan-2-yl 10-phenyldecanoate]
- neurite retraction [5]: induced neurite retraction
- cell migration [6]: induced cell migration
- Ca2+ response on repeated application [7]: induced a reduction of the Ca^2+ responses
- neuronal firing of action potentials on repeated application [8]: provoked the firing of action potentials that were attenuated upon a second instillation
- number of writhes after acute single administration [9]: increased the number of writhes in the first minutes after the administration
- mechanical nociceptive threshold [10]: significantly superior compared to vehicle-treated mice
- exploratory or locomotor activity [11]: did not induce any alteration in the exploratory or locomotor activity

- Ca2+ response relative to 10 μM ionomycin ([3]; 10 μM LPA, positive control): 30–33%
- Emax at 10 µM ([3]; RH7777): 100%
- LPA1 internalization [12]: the receptor is internalized
SMILES: CCCCCCCC/C=C\CCCCCCCC(=O)OC[C@@H](O)COP(=O)(O)O [LPA, 1-oleoyl-sn-glycerol-3-phosphate, reference compound]
- Ca2+ response on repeated application [7]: the Ca^2+ response is notably reduced in a second LPA application
- neuronal firing of action potentials on repeated application [8]: provoked the firing of action potentials that were attenuated upon a second instillation

Reference: PMC7344333 (Journal of medicinal chemistry, 2019)
